Values quoted from earlier work, collected in patent US7265128B2, “3-amino-4-phenylbutanoic acid derivatives as dipeptidyl peptidase inhibitors for the treatment or prevention of diabetes” (Merck & Co., Inc., priority 2003, dated 2007).

Tests used:
[1] = system: mouse; settings: cyclophosphamide-induced neutropenia
[2] = system: rats; settings: survival doubled from day 7
[3] = target: T1, DP-IV (Homo sapiens, UniProt P27487)
T1 construct: GRF is rapidly degraded in plasma to GRF[3-44]
T1 sequence (P27487 whole entry): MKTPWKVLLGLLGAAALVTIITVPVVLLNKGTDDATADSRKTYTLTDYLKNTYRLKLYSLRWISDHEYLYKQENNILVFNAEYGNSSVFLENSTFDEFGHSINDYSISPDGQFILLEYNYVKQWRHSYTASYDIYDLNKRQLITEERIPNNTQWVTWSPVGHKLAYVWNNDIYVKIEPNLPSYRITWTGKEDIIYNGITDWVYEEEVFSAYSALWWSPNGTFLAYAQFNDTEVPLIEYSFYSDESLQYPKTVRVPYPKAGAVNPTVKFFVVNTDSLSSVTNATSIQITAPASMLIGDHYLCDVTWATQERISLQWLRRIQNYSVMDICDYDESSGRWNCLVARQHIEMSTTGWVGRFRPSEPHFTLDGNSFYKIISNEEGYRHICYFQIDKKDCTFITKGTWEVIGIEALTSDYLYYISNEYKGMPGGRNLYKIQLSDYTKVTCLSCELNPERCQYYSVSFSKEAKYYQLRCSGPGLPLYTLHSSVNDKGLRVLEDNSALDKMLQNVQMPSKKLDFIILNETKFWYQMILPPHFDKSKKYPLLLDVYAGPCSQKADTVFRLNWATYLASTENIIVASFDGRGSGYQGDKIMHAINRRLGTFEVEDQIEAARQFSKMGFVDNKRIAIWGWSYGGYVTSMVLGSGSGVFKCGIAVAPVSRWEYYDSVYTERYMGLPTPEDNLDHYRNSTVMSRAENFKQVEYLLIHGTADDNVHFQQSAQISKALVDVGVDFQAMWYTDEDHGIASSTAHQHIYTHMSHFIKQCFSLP

## CC(C)[C@H](N)C(=O)N1CCC[C@H]1B(O)O [Val-Boro-Pro]
[1]
  hematopoiesis: stimulated hematopoiesis

## CC(C)N1CCC(c2ccccc2)(c2ccccc2)CC1 [Prodipine, Pro-Pro-diphenyl-phosphonate]
[2]
  cardiac allograft survival: 14 day

## diprotin A
[3]
  degradation of GRF in plasma to GRF[3-44]: prevented
